According to patent publication US12275734B1, “Pleuromutilin onium salt derivative containing a 3H-imidazo[4,5-c]pyridine side chain, and a preparation method and application thereof” (SHAANXI UNIVERSITY OF SCIENCE AND TECHNOLOGY, priority 2024, dated 2025):
≈ marks a conversion by molar mass, not a printed value. Like-named read-outs stand apart in the source and are kept apart here.

Tests used:
Type in all cases: cell-based
[1] = system: M. synoviae WVU1853, NCTC10124; assay: Anti-mycoplasma MIC; details: Mycoplasmopsis synoviae
Description: (§1) The antimycoplasma activity was quantified using the […]. Retapamulin was used as a positive control to test the minimum inhibitory concentration of 3H-imidazo[4,5-C]pyridine pleuromutilin onium salt derivatives.
(§2) (1) Preparation of KM2 medium: Weigh 38.9 g of KM2 medium, add it to 800 mL of distilled water, boil to dissolve, sterilize under high pressure at 115° C. for 20 min, and set aside.
(§3) (2) Preparation of bacterial stock solution: Take 0.5 mL of Mhp-J^a, Mhp-LH^b, Mhr-BTS-7^c, MG-R^d, MS-WVU1853^e, MP-M129^f, CP-AR-39^g, CP-CWL-029^h, CP-TW-183^i, MH-PG-21^j, MG-G37^k cultured to the logarithmic phase and transfer it to 4.5 mL of KM2 liquid culture medium. When the culture medium turns yellow, divide each bacterium into 0.5 mL per tube and store it at −70° C. as bacterial stock solution.
(§4) (3) Determination of bacterial titer (color change unit, CCU): Take out the bacterial stock solution stored at −70° C., melt and balance to room temperature, add 0.18 mL KM2 medium to each well of the middle 4 rows of the 96-well plate (i.e. 4 parallels), take 0.02 mL and add it to the first column, dilute 10 times to 10^−11, and set up a negative control containing only KM2 medium (12th column). After sealing, put it in a 37° C. incubator and observe the results every day. The highest dilution at which the color of the medium changes is the CCU/mL of the strain.
(§5) Take an appropriate amount of seed bacterial solution and dilute it to 10^4 CCU/mL in turn according to its titer. Add drugs of each dilution in a 96-well plate in turn, and then add an equal amount of diluted bacterial solution. Set 200 μL of diluted mycoplasma bacterial solution as a positive control, 200 μL of KM2 liquid culture medium as a negative control, and set a solvent control group (10 μL of drug solvent+190 μL of mycoplasma bacterial solution). Each experiment is set up in 3 parallels. After all culture plates are sealed, they are cultured at 37° C., observed daily, and the final MIC value is recorded.

[2] = system: M. genitalium G37, ATCC33530; assay: Anti-mycoplasma MIC; details: Mycoplasmoides genitalium
Description: as §1, §2, §3, §4, §5

[3] = system: C. pneumoniae AR39, ATCC53592; assay: Anti-mycoplasma MIC; details: Chlamydia pneumoniae
Description: as §1, §2, §3, §4, §5

[4] = system: M. hyopneumoniae J, NCTC10110; assay: Anti-mycoplasma MIC; details: Mesomycoplasma hyopneumoniae
Description: as §1, §2, §3, §4, §5

[5] = system: M. galliscepticum, NCTC10115; assay: Anti-mycoplasma MIC; details: read-out: Antimycoplasma activity (MIC) MG-R^d
Description: as §1, §2, §3, §4, §5

[6] = system: M. pneumoniae M129, ATCC29342; assay: Anti-mycoplasma MIC; details: Mycoplasmoides pneumoniae
Description: as §1, §2, §3, §4, §5

[7] = system: M. hominis PG-21, ATCC23114; assay: Anti-mycoplasma MIC; details: Metamycoplasma hominis
Description: as §1, §2, §3, §4, §5

[8] = system: M. hyorhinis BTS-7, NCTC10130; assay: Anti-mycoplasma MIC; details: Mesomycoplasma hyorhinis
Description: as §1, §2, §3, §4, §5

[9] = system: C. pneumoniae TW183, VR-2282; assay: Anti-mycoplasma MIC; details: Chlamydia pneumoniae, read-out: Antimycoplasma activity (MIC) CP-TW-183^i
Description: as §1, §2, §3, §4, §5

[10] = system: methicillin-resistant Staphylococcus aureus-575; assay: MIC, clinical isolates
Description: (§6) The minimum inhibitory concentration of 3H-imidazo[4,5-C]pyridine pleuromutilin onium salt derivatives against the tested pathogenic microorganisms were determined by broth microdilution method, with valnemulin and retapamulin as positive controls.
(§7) The experimental strains included resistant Gram-positive bacteria: Methicillin-resistant S. aureus ATCC 33591; Methicillin-resistant S. aureus ATCC 43300; S. aureus ATCC 29213; Methicillin-resistant S. epidermidis ATCC 51625. Resistant Gram-negative bacteria: A. baumannii ATCC 19606; S. enterica ATCC14028; E. coli ATCC 25922; E. coli CMCC 44103. 9 clinically isolated resistant strains: MRSA-171; MRSA-575; MRSA-206; MRSA-222; MRSA-596; VRE-80; MDR-PA-126; MDR-KP-893; CR-AB-882.
(§8) (1) Preparation of MHB medium: Weigh 18.0 g of MHB medium pre-made powder, add it to 1 L of distilled water, heat and boil until completely dissolved, divide it into conical bottles, sterilize it by high pressure at 121° C. for 15 minutes, and set aside.
(§9) (2) Cultivate the experimental strain to the logarithmic growth phase: Under sterile conditions, inoculate the experimental strain into fresh MHB medium and culture it in a 37° C. constant temperature and humidity incubator for 16-24 hours. Adjust the bacterial solution concentration to 1.5×10^8 CFU/mL and then dilute it 200 times for later use.
(§10) (3) Preparation of storage solution: Weigh the sample to be tested, dissolve it in 1% DMSO solution, and prepare a storage solution with a concentration of 2560 μg/mL; weigh the positive control, dissolve it in sterile distilled water, and prepare a storage solution with a concentration of 2560 μg/mL.
(§11) (4) Preparation of bacterial suspension: Under sterile conditions, the experimental strain cultured to the logarithmic growth phase was calibrated to a 0.5 McFarland unit turbidity standard using MHB medium and then diluted at a ratio of 1:200 to prepare a bacterial suspension with a concentration of 5×10^5 CFU/mL for later use.
(§12) (5) Determination of MIC by two-fold microdilution method: Take a sterile 96-well plate, add 10 μL of the test compound at a concentration of 2560 μg/mL, and perform serial dilutions by the two-fold dilution method. At the same time, set up a negative control group without drug. Then add 190 μL of diluted bacterial solution to each well, so that the final bacterial solution concentration in each well is 5×10^5 CFU/mL, and incubate in a 37° C. constant temperature and humidity chamber for 24 hours.

[11] = system: carbapenem-resistant Acinetobacter baumannii-882; assay: MIC, clinical isolates
Description: as §6, §7, §8, §9, §10, §11, §12

Work on `C=C[C@]1(C)C[C@@H](OC(=O)CSc2nc3cc[n+](Cc4ccc(C)cc4)cc3[nH]2)[C@]2(C)[C@H](C)CC[C@]3(CCC(=O)[C@H]32)[C@@H](C)[C@@H]1O` [Compound i, 5-(4-methylbenzyl)-2-((2-(((3aR,4R,5R,7S,8S,9R,9aS,12R)-8-hydroxy-4,7,9,12-tetramethyl-3-oxo-7-vinyldecahydro-4,9a-propancyclopenta[8]cyclo-5-yl)oxy)-2-oxoethyl)thio)-3H-imidazo[4,5-C]pyridine-5-ium] yielded an MIC ([1]; NCTC10124, M. synoviae WVU1853, read-out: Antimycoplasma activity (MIC) MS-WVU1853^e) of 0.015 µg/mL, an MIC ([2]; ATCC33530, M. genitalium G37, read-out: Antimycoplasma activity (MIC) MG-G37^k) of 0.03 µg/mL and an MIC ([3]; ATCC53592, C. pneumoniae AR39, read-out: Antimycoplasma activity (MIC) CP-AR-39^g) of 0.002 µg/mL. It also gave an MIC ([4]; NCTC10110, M. hyopneumoniae J, read-out: Antimycoplasma activity (MIC) Mhp-J^a) of 0.02 µg/mL, an MIC ([5]; M. galliscepticum) of 0.04 µg/mL and an MIC ([6]; ATCC29342, M. pneumoniae M129, read-out: Antimycoplasma activity (MIC) MP-M129^f) of 0.008 µg/mL. The MIC ([7]; ATCC23114, M. hominis PG-21, read-out: Antimycoplasma activity (MIC) MH-PG-21^j) was 0.015 µg/mL, the MIC ([8]; NCTC10130, M. hyorhinis BTS-7, read-out: Antimycoplasma activity (MIC) Mhr-BTS-7^c) was 0.03 µg/mL and the MIC ([9]; C. pneumoniae TW183) was 0.01 µg/mL. For the same compound, the MIC ([10]; clinical isolate MRSA-575, read-out: Antibacterial activity (MIC) MRSA^c) was 1 µg/mL and the MIC ([11]; clinical isolate CR-AB-882, read-out: Antibacterial activity (MIC) CR-AB^j) was 4 µg/mL.
`C=C[C@]1(C)C[C@@H](OC(=O)CS[C@@H]2C[C@H]3CC[C@@H](C2)N3C)[C@]2(C)[C@H](C)CC[C@]3(CCC(=O)[C@H]32)[C@@H](C)[C@@H]1O` [Retapamulin, reference compound] gave an MIC ([1]; NCTC10124, read-out: Antimycoplasma activity (MIC) MS-WVU1853^e) of 2 µg/mL (≈ 3.86 µM), an MIC ([2]; ATCC33530, read-out: Antimycoplasma activity (MIC) MG-G37^k) of 0.03 µg/mL (≈ 0.0579 µM) and an MIC ([3]; ATCC53592, read-out: Antimycoplasma activity (MIC) CP-AR-39^g) of 0.125 µg/mL (≈ 0.241 µM). It also gave an MIC ([4]; NCTC10110, read-out: Antimycoplasma activity (MIC) Mhp-J^a) of 0.03 µg/mL (≈ 0.0579 µM), an MIC [5] of 0.125 µg/mL (≈ 0.241 µM) and an MIC ([6]; ATCC29342, read-out: Antimycoplasma activity (MIC) MP-M129^f) of 0.015 µg/mL (≈ 0.029 µM). The MIC ([7]; ATCC23114, read-out: Antimycoplasma activity (MIC) MH-PG-21^j) was 0.25 µg/mL (≈ 0.483 µM), the MIC ([8]; NCTC10130, read-out: Antimycoplasma activity (MIC) Mhr-BTS-7^c) was 0.03 µg/mL (≈ 0.0579 µM) and the MIC [9] was 0.03 µg/mL (≈ 0.0579 µM). The MIC ([10]; MRSA, read-out: Antibacterial activity (MIC) MRSA^c) was 32 µg/mL (≈ 61.8 µM) and the MIC ([11]; read-out: Antibacterial activity (MIC) CR-AB^j) was 64 µg/mL (≈ 124 µM).
